In PubChem BioAssay (NCI):
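Test compounds were applied to cells in 96-well plates for 48 hours at 5 doses. TGI: total growth inhibition.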 Where a SMILES comes first, the peptide text is derived from it. Bridges are numbered along the chain shown (N, C = ends). [ ]: non-standard residue; d: D form. The star is where a group is joined. ξ: configuration not given here. X26 = O=C(/C=C/C=C/C=C/C=C/C=C/C(=O)*)NC1=C(O)CCC1=O; NMeA = CN[C@@H](C)C(=O)O; ξF = NC(Cc1ccccc1)C(=O)O; ξA = CC(N)C(=O)O

Assays:
Assay in all cases: NCI anticancer screen, dose series, 48 h
SK-MEL-5 melanoma = test system: SK-MEL-5 melanoma
NCI-H522 lung = test system: NCI-H522 lung
RXF 393 renal = test system: RXF 393 renal
SW-620 colon = test system: SW-620 colon
TK-10 renal = test system: TK-10 renal
HT29 colon = test system: HT29 colon
SK-MEL-28 melanoma = test system: SK-MEL-28 melanoma
786-0 renal = test system: 786-0 renal
SF-539 CNS = test system: SF-539 CNS
EKVX NSCLC = test system: EKVX NSCLC
PC-3 prostate = test system: PC-3 prostate
MOLT-4 leukemia = test system: MOLT-4 leukemia
KM12 colon = test system: KM12 colon
LOX IMVI melanoma = test system: LOX IMVI melanoma
MALME-3M melanoma = test system: MALME-3M melanoma
T-47D breast = test system: T-47D breast
UO-31 renal = test system: UO-31 renal

Compound	TGI (SK-MEL-5 melanoma)	TGI (NCI-H522 lung)	TGI (RXF 393 renal)	TGI (SW-620 colon)	TGI (TK-10 renal)	TGI (HT29 colon)	TGI (SK-MEL-28 melanoma)	TGI (786-0 renal)	TGI (SF-539 CNS)	TGI (EKVX NSCLC)	TGI (PC-3 prostate)	TGI (MOLT-4 leukemia)	TGI (KM12 colon)	TGI (LOX IMVI melanoma)	TGI (MALME-3M melanoma)	TGI (T-47D breast)	TGI (UO-31 renal)
Cc1ccc(CC[P+](=O)CCc2ccc(C)nc2)cn1	> 100 µM	> 100 µM	> 100 µM	> 100 µM	> 100 µM	> 100 µM	> 100 µM	> 100 µM	> 100 µM	> 100 µM	> 100 µM	> 100 µM	> 100 µM	> 100 µM	> 100 µM	> 100 µM	–
CCc1c[n+]([O-])c(C)cc1[N+](=O)[O-]	> 100 µM	> 100 µM	60.9 µM	> 100 µM	> 100 µM	> 100 µM	> 100 µM	> 100 µM	> 100 µM	> 100 µM	> 100 µM	> 100 µM	> 100 µM	> 100 µM	97.3 µM	> 100 µM	> 100 µM
O=C(O)c1cc(-c2ccc3c(O)c(O)ccc3c2)ccc1O	> 75 µM	> 75 µM	47.8 µM	36.8 µM	> 75 µM	42.5 µM	> 75 µM	> 75 µM	> 75 µM	> 75 µM	> 75 µM	33.2 µM	> 75 µM	34.9 µM	> 75 µM	> 75 µM	> 75 µM
Cc1cc2c([N+](=O)[O-])cc3c(c2o1)C(=O)C=CC3=O	28.1 µM	3.32 µM	3.54 µM	–	5.72 µM	4.67 µM	> 20.8 µM	3.59 µM	31.3 µM	11.5 µM	30.7 µM	2.94 µM	32.2 µM	> 36 µM	–	> 22.1 µM	3.62 µM
CC(=O)Oc1cc(C(F)(F)F)ccc1C(=O)OC1(C)OC(=O)c2ccc(C(F)(F)F)cc2O1 (centres undefined)	–	> 100 µM	> 100 µM	> 100 µM	> 100 µM	> 100 µM	> 100 µM	> 100 µM	> 100 µM	> 100 µM	> 100 µM	> 100 µM	> 100 µM	> 100 µM	> 100 µM	> 100 µM	> 100 µM
N#CC(N=Nc1ccc(Cl)cc1)c1nc2ccccc2o1 (centres undefined)	> 100 µM	81.1 µM	> 100 µM	–	> 100 µM	> 100 µM	> 100 µM	> 100 µM	56.2 µM	> 100 µM	> 100 µM	> 100 µM	> 100 µM	–	> 100 µM	> 100 µM	> 100 µM
CC1CN=C(N(C(=O)Nc2ccc(F)c(Cl)c2)c2ccccc2)S1 (centres undefined)	30 µM	–	–	90.3 µM	68.4 µM	58 µM	33.5 µM	56 µM	> 100 µM	62.4 µM	95.5 µM	62.2 µM	78.3 µM	32.5 µM	78.5 µM	> 100 µM	98.1 µM
CC1NC(=O)[C@H](C)N(C)C(=O)[C@@H]2CCCN2C(=O)[C@@H](NC(=O)C(Cc2ccccc2)NC(=O)/C=C/C=C/C=C/C=C/C=C/C(=O)NC2=C(O)CCC2=O)COC(=O)[C@@H]2CCCN2C1=O (some centres undefined) (X26-[ξF]SP[NMeA][ξA]P; ester 2-C)	> 100 µM	> 100 µM	> 100 µM	> 100 µM	92.1 µM	> 100 µM	> 100 µM	> 100 µM	> 100 µM	> 100 µM	> 100 µM	–	> 100 µM	> 100 µM	> 100 µM	> 100 µM	> 100 µM
CCOC(=O)c1nc2ccc(C(F)(F)F)cc2nc1Oc1ccc(C#N)cc1	> 100 µM	–	37.8 µM	> 100 µM	84.3 µM	77.9 µM	> 100 µM	35.6 µM	36.7 µM	30.2 µM	36 µM	> 100 µM	> 100 µM	> 100 µM	–	> 100 µM	> 100 µM
COc1ccc(/C=C2\C[C@H]3[C@@H]4CCC5=C/C(=N/O)CC[C@]5(C)[C@H]4CC[C@]3(C)\C2=N\O)cc1OC	14.9 µM	> 100 µM	> 100 µM	> 100 µM	–	> 100 µM	> 100 µM	> 100 µM	> 100 µM	32 µM	> 100 µM	94.3 µM	> 100 µM	> 100 µM	> 100 µM	> 100 µM	> 100 µM
C(=Nc1ccc(-c2nc3ccccc3o2)cc1)c1ccco1	> 100 µM	> 100 µM	> 100 µM	> 100 µM	–	> 100 µM	> 100 µM	> 100 µM	> 100 µM	> 100 µM	> 100 µM	> 100 µM	–	> 100 µM	> 100 µM	> 100 µM	> 100 µM
CCCCNC(=S)N/N=C/c1cccc(C)n1	> 100 µM	41.8 µM	–	> 100 µM	97.6 µM	–	> 100 µM	> 100 µM	96.8 µM	> 100 µM	> 100 µM	55.1 µM	> 100 µM	> 100 µM	> 100 µM	> 100 µM	78.5 µM
O=C(Nc1ccccc1F)c1cc2ccc(O)cc2oc1=Nc1ccccc1F	3.85 µM	3.09 µM	–	8.98 µM	–	32.9 µM	5.8 µM	3.34 µM	16.5 µM	6.01 µM	7.61 µM	6.11 µM	5.37 µM	4.16 µM	3.44 µM	4.63 µM	3.56 µM
C/C1=C\CC[C@@]2(C)O[C@@H]2C[C@@H](C2(C)CO2)CC/C(C)=C/CC1 (some centres undefined)	47.1 µM	52.6 µM	–	> 100 µM	32.5 µM	> 100 µM	57.6 µM	31.8 µM	46 µM	36.1 µM	82.2 µM	> 100 µM	34.3 µM	28.8 µM	32.5 µM	78.3 µM	55.9 µM
NC(CC1=CS(=O)(=O)c2ccc(Cl)cc21)C(=O)O (centres undefined)	> 100 µM	> 100 µM	> 100 µM	> 100 µM	> 100 µM	> 100 µM	> 100 µM	> 100 µM	> 100 µM	> 100 µM	> 100 µM	> 100 µM	> 100 µM	> 100 µM	> 100 µM	> 100 µM	–
Clc1ccc(CSCCc2ccncc2)cc1Cl	29.9 µM	33.8 µM	61.8 µM	46.6 µM	> 100 µM	31.2 µM	50.8 µM	33.1 µM	31.5 µM	57 µM	45.4 µM	38.1 µM	50.9 µM	–	42.4 µM	> 100 µM	56.9 µM
CC1(C)C2CC(=O)C1(C)C(O)C2Br (centres undefined)	> 100 µM	–	> 100 µM	> 100 µM	> 100 µM	> 100 µM	> 100 µM	> 100 µM	> 100 µM	> 100 µM	> 100 µM	> 100 µM	> 100 µM	–	> 100 µM	> 100 µM	> 100 µM
CC(C)(C)OC(=O)NCCC(N)=S	> 100 µM	–	> 100 µM	> 100 µM	> 100 µM	> 100 µM	> 100 µM	> 100 µM	> 100 µM	> 100 µM	> 100 µM	> 100 µM	> 100 µM	–	> 100 µM	> 100 µM	> 100 µM
COc1ccc(S(=O)(=O)N2C(=O)CCC2C(=O)NN)cc1 (centres undefined)	> 100 µM	> 100 µM	–	> 100 µM	> 100 µM	> 100 µM	> 100 µM	> 100 µM	> 100 µM	> 100 µM	> 100 µM	> 100 µM	> 100 µM	> 100 µM	> 100 µM	> 100 µM	> 100 µM
CCC1=NC(C(F)(F)F)(C(F)(F)F)N=C(N2CCOCC2)O1	> 100 µM	> 100 µM	> 100 µM	> 100 µM	> 100 µM	> 100 µM	> 100 µM	–	> 100 µM	> 100 µM	> 100 µM	> 100 µM	> 100 µM	> 100 µM	–	> 100 µM	> 100 µM
COC(=O)c1c2c(cc3c1CCC3)CCC2	29.5 µM	> 100 µM	–	> 100 µM	> 100 µM	> 100 µM	> 100 µM	> 100 µM	> 100 µM	> 100 µM	> 100 µM	> 100 µM	> 100 µM	> 100 µM	> 100 µM	43.9 µM	> 100 µM
N#CCc1nc(-c2ccccc2)n[nH]1	> 100 µM	> 100 µM	> 100 µM	> 100 µM	> 100 µM	> 100 µM	–	> 100 µM	> 100 µM	> 100 µM	> 100 µM	> 100 µM	> 100 µM	> 100 µM	> 100 µM	> 100 µM	> 100 µM
O=C1CC(C(O)(C(F)(F)F)C(F)(F)Cl)CCC1C(O)(C(F)(F)F)C(F)(F)Cl (centres undefined)	> 10 µM	> 10 µM	> 10 µM	> 10 µM	> 10 µM	> 10 µM	> 10 µM	> 10 µM	> 10 µM	> 10 µM	> 10 µM	> 10 µM	> 10 µM	> 10 µM	> 10 µM	> 10 µM	–
C=CCNC(=S)N=Nc1c(O)[nH]c2ccc([N+](=O)[O-])cc12	> 100 µM	> 100 µM	73.3 µM	> 100 µM	> 100 µM	> 100 µM	> 100 µM	–	> 100 µM	> 100 µM	> 100 µM	> 100 µM	> 100 µM	> 100 µM	> 100 µM	87.4 µM	> 100 µM
CC(=O)O/N=C/c1c2ccccc2cc2ccccc12	> 100 µM	–	86.2 µM	> 100 µM	> 100 µM	> 100 µM	> 100 µM	–	> 100 µM	> 100 µM	> 100 µM	> 100 µM	> 100 µM	> 100 µM	> 100 µM	> 100 µM	> 100 µM
CCOC(=O)C(Cl)(Cl)/S(=N\S(=O)(=O)c1ccccc1)NC(=O)c1ccccc1 (centres undefined)	> 100 µM	–	> 100 µM	> 100 µM	> 100 µM	> 100 µM	> 100 µM	> 100 µM	> 100 µM	> 100 µM	> 100 µM	> 100 µM	> 100 µM	> 100 µM	> 100 µM	> 100 µM	> 100 µM
NCCCN1CCN(CCCNc2ccc3nnn4c5ccccc5c(=O)c2c34)CC1	32.1 µM	27.1 µM	–	> 100 µM	> 100 µM	50.3 µM	> 100 µM	33.1 µM	36.2 µM	41.1 µM	35.5 µM	> 100 µM	–	26.8 µM	39.1 µM	> 100 µM	90.7 µM
O=C(NCCCN(CCCCN(CCCNC(=O)C(F)(F)F)Cc1ccc2ccccc2c1)Cc1ccc2ccccc2c1)C(F)(F)F	3.38 µM	> 100 µM	> 100 µM	> 100 µM	> 100 µM	2.57 µM	5.88 µM	> 100 µM	> 100 µM	> 100 µM	> 100 µM	> 100 µM	> 100 µM	> 100 µM	–	> 100 µM	> 100 µM
Cc1c(N2C(=O)C(Cl)C2c2ccc(Cl)cc2)c(=O)n(-c2ccccc2)n1C (centres undefined)	> 100 µM	> 100 µM	> 100 µM	> 100 µM	> 100 µM	> 100 µM	–	> 100 µM	> 100 µM	> 100 µM	> 100 µM	> 100 µM	> 100 µM	91.6 µM	> 100 µM	> 100 µM	> 100 µM
